According to paper PMC6748986, “Potent modulation of the CepR quorum sensing receptor and virulence in a Burkholderia cepacia complex member using non-native lactone ligands” (Scientific Reports, 2019):
Where two headings read alike, the source gives them in different places.

Experiments:
[1] = test system: B. multivorans ATCC17616; assay: C. elegans survival assay, B. multivorans infection; type: in vivo; conditions: C. elegans N2 infected with B. multivorans; for Effect on survival of Bm-infected worms (agonists): 1 μM for agonists, relative to untreated worms; for Effect on survival of Bm-infected worms (antagonists): 50 μM for antagonists
From the text: We next assessed the effects of our lead CepR modulators on exacerbating or alleviating infections by a Bcc member using the nematode C. elegans as a model of pathogenicity. We infected N2 nematodes with B. multivorans ATCC17616 in the presence of compound, and assessed survival of worms over time (see Methods)[13],[35],[53]. None of the compounds tested caused measurable toxicity effects in uninfected worms under these conditions. […] Our results here, using chemical CepR modulators, appear to replicate these effects in B. multivorans nematode infections.
The C. elegans survival assay was based on previously reported procedures[35],[65]. To synchronize worms, eggs were harvested by hypochlorite bleaching (5 min in 1 mL 5% bleach, 0.25 mL 5 M NaOH, 3.75 mL H2O), and grown on Nematode Growth Media (NGM) + E. coli OP50 at 21 °C. B. multivorans was grown overnight with the compound of interest in LB medium (1 μM for agonists, 50 μM for antagonists), and then the overnight culture was centrifuged, resuspended in the assay medium, standardized to OD600 = 0.8, and 25 μL of this culture was used per condition. CFUs of these standardized cultures were used to confirm that bacteria numbers were relatively the same. For the survival assay, synchronized worms (L4 stage) were suspended in liquid NGM media containing bacteria and compound in 96-well plates (100 μL total volume). […] Plates were incubated at 25 °C, after which they were analyzed by a dissecting microscope. The fraction of dead worms was determined by scoring the number of dead worms and the total number of worms in each well. At least 30 nematodes were used for each well, and each assay was performed at least in duplicate on a single day (n ≥ 60). Survival assays were then repeated at least once on different days to verify patterns. Compound effect on worm survival rarely varied between replicates, but the overall worm susceptibility varied among assays. Kaplan-Meier survival curves were calculated using GraphPad Prism (v. 7.0) software.

[2] = target: T1, CepR (Burkholderia multivorans, UniProt Q93PF7); assay: CepR agonism in B. multivorans cepI::lacZ reporter (Bm-reporter); type: cell-based; conditions: for activation at 100 µM: read-out: Act%; for Emax: read-out: Maximal Activation (%)
T1 sequence (Q93PF7 1-239): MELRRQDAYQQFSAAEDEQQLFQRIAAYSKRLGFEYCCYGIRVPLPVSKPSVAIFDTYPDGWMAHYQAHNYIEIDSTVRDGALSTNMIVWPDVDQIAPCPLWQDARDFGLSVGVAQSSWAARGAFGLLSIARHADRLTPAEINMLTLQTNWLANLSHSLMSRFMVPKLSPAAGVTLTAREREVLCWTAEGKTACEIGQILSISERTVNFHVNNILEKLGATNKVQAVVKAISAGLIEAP
In short: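 B. multivorans cepI::lacZ cells (1:10 dilution of overnight LB culture) grown 4 h at 37 °C with compound, then β-galactosidase read with CPRG on permeabilized cells at 25 °C for ~10 min. Agonism compared against 100 μM C8-AHL; antagonism run in the presence of 5 nM C8-AHL.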

[3] = target: T1, CepR; assay: CepR antagonism in B. multivorans cepI::lacZ reporter (Bm-reporter), competition against C8-AHL; type: cell-based
From the text: We next sought to assess if the CepR modulators identified in the Ec-reporter maintained their activities in a member of the Bcc. For these studies, we generated a B. multivorans cepI::lacZ reporter organism (Bm-reporter) using standard allelic exchange methods (see Methods). Along with B. cenocepacia, B. multivorans is one of the most commonly isolated Bcc members[6],[44]. We note that small molecules must contend with a different cellular environment in the native organism relative to E. coli[48]; however, as both CepR and the cepI promoter are highly conserved among Bcc species (Fig. S3), we reasoned that the majority of compounds identified in the Ec-reporter (containing B. cenocepacia versions of the cepI promoter and the cepR gene) would maintain their relative activity profiles in CepR in B. multivorans. […] Similar to the Ec-reporter, CepR binding to the cepI promoter then induces β-galactosidase production, allowing for the quantitation of CepR activity. Using the Bm-reporter organism, we observed robust activity for CepR in response to C8-AHL (EC50 = 0.7 nM, Table 3).
The B. multivorans cepI::lacZ strain was used to obtain dose-response data for CepR in response to synthetic AHLs. Overnight cultures of B. multivorans cepI::lacZ were grown in LB medium at 37 °C with shaking (225 rpm). Aliquots (200 μL) of a 1:10 dilution of this overnight culture were plated into 96-well plates containing varying concentrations of compound, and then grown for 4 h at 37 °C with shaking (225 rpm). β-galactosidase production was measured as described above for E. coli, with the following changes: permeabilized cells were incubated at 25 °C with substrate CPRG for ~10 min until positive control wells developed a deep red color. For agonism assays, synthetic compound was screened alongside and compared to the native ligand, C8-AHL (100 μM). For antagonism assays, the concentration of native ligand utilized was 5 nM (approximately equal to twice its EC50 value).

[4] = test system: LasR, RhlR, and QscR; assay: Comparison of activities in CepR vs. the three LuxR-type receptors in P. aeruginosa; conditions: preliminary analyses; comparison with earlier data ref 22, 24, 59
From the text: To close, the compounds identified herein constitute new chemical tools to study QS in Bcc species in a variety of contexts. Given the strong conservation of CepR between Bcc members, we hypothesize our compounds will maintain their activity profiles across Bcc member species and we can begin to use them to assess the role of CepI/CepR QS on a broader scale. […] A next step moving forward will be to gauge the selectivity of the ligands identified herein for CepR over other LuxR-type receptors. […] Such compounds could allow for the selective targeting of QS in one organism in a mixed culture over time and allow for insights into the potential for interspecies interactions via QS and their effects on host health outcomes. Ongoing studies are focused in this arena, along with further delineating the mechanisms by which our CepR ligands agonize and antagonize CepR, and will be reported in due course.

[5] = test system: B. multivorans ATCC17616; assay: Swarming motility assay (0.5% agar); type: cell-based; conditions: 50 μM C8-AHL
From the text: We were interested to assess the effects of our lead CepR modulators on a phenotype under the control of QS in B. multivorans. However, very little work has been reported to directly link CepR activity in B. multivorans to any QS-controlled phenotype. […] Therefore, we chose to study the effects of compound treatment on both the swarming and swimming motility of B. multivorans (B. multivorans ATCC17616; see Methods).
We then tested the ability of our non-native compounds to modulate swimming motility in B. multivorans.
Figure S4. Motility assays (A ) on 0.3% agar (i.e., to measure swimming) with th e B. multivorans parental and cepI::lacZ organisms, using +/- 50 μM C8-AHL and (B) on 0. 5 % ag a r (i.e . , t o measure swarming ) with the B. multivorans parental organism, using +/- 50 μ M C8-AHL. Se e main text for assay methods.
(1 picture or pasted object on this page, not shown here)

[6] = Bm-reporter, against 5 nM C8-AHL

Compound	Effect on survival of Bm-infected worms (agonists) [1]	IC50 [3] [nM]	Maximal Inhibition (%) [3, 6] [%]	Selectivity for CepR over LasR, RhlR, QscR [4]	Effect on survival of Bm-infected worms (antagonists) [1]	EC50 [2] [nM]	activation at 100 µM [2] [%]	Emax [2] [%]	also measured
CCCCCC(O)CC(=O)N[C@H]1CCOC1=O (stereo partly shown) [3’OH-C8-AHL, reference compound]	did not appear to affect worm survival								EC50 ([2]; Bm-reporter, agonism dose-response, read-out: EC50): ≥ 980 nM; Maximal Activation (%) ([2]; Bm-reporter, activity for 100 μM C8-AHL set to 100%, error ±10%): 78%; Act% ([2]; Table S4, Bm-reporter, screening conc. 100 μM): 78%
CCCCCCCS(=O)(=O)N[C@H]1CCOC1=O [Compound A12]		1700	82	selective for CepR					
O=C(CC1CCCC1)N[C@H]1CCOC1=O [Compound B12]		2100	83		prolonged nematode survival				
CCCCCCCC(=O)N[C@H]1CCOC1=O [Compound C8-AHL, N-octanoyl L-homoserine lactone, reference compound]	significantly increased worm death					0.7	100	100	Swarming motility upon addition of compound [5]: not increased
O=C(Cc1cccc(Br)c1)N[C@H]1CCOC1=O [Compound C8]			94		prolonged nematode survival				CepR antagonism in words ([3]; Bm-reporter): bring reporter activity down to nearly zero; IC50 ([3]; Bm-reporter, against 5 nM C8-AHL, read-out: IC50): 2600 nM
O=C(Cc1cccc(C(F)(F)F)c1)N[C@H]1CCOC1=O [Compound E3]		1900	100	selective for CepR	prolonged nematode survival		3.1		CepR antagonism in words ([3]; Bm-reporter): bring reporter activity down to nearly zero
O=C(CCc1ccc(I)cc1)N[C@H]1CCOC1=O [Compound E32]						0.08	110	110	
O=C(CCc1ccc(C(F)(F)F)cc1)N[C@H]1CCOC1=O [Compound E35]						0.022	98	98	
O=C(CCc1ccc([N+](=O)[O-])cc1)N[C@H]1CCOC1=O [Compound E37]	promoted worm killing			selective for CepR		0.0025	91	91	EC50 fold lower than C8-AHL ([2]; Bm-reporter): ~ 250 fold
